The text below walks through data of BindingDB's records for doi:10.1021/jm00387a019 (1987).

The assay addresses Voltage-dependent L-type calcium channel subunit alpha-1C (Sus scrofa). As to the kind of experiment: Inhibition of [3H]nitrendipine binding to L-type calcium channel dihydropyridine site of porcine cardiac sarcolemma membrane vesicles.

One may read the Ki as the dissociation constant of the complex between target and ligand, obtained from inhibition or displacement.

As for `CCOC(=O)C1=C(C)N=C(C)C(=C(O)OCC)C1c1cc([N+](=O)[O-])ccc1SC` (centres undefined), the Ki was 80 nM.

On to `CCOC(=O)[C@H]1[C@H]2/C(=C(\O)OCC)C(C)=N[C@]1(C)Sc1ccccc12`, for which the Ki is 5000 nM.

Regarding `CCOC(=O)[C@@H]1[C@H]2/C(=C(\O)OCC)C(C)=N[C@]1(C)Sc1cc([N+](=O)[O-])ccc12`, the Ki is 3000 nM.

`CCOC(=O)[C@H]1[C@H]2/C(=C(\O)OCC)C(C)=N[C@]1(C)Sc1cc([N+](=O)[O-])ccc12`: the Ki came to 5000 nM.

In the case of `CCOC(=O)[C@H]1[C@H]2/C(=C(\O)OCC)C(C)=N[C@]1(C)Sc1ccc([N+](=O)[O-])cc12`, the Ki stood at 650 nM.

For `CCOC(=O)[C@H]1[C@H]2/C(=C(\O)OCC)C(C)=N[C@]1(C)Sc1c2cccc1[N+](=O)[O-]`, the Ki came to 250 nM.

Regarding `CCOC(=O)[C@@H]1[C@H]2/C(=C(\O)OCC)C(C)=N[C@]1(C)Sc1ccccc12`, the Ki is 500 nM.

Take `CCOC(=O)[C@@H]1[C@H]2/C(=C(\O)OCC)C(C)=N[C@]1(C)Sc1ccc([N+](=O)[O-])cc12`: the Ki was 30 nM.

Regarding `CCOC(=O)[C@@H]1[C@H]2/C(=C(\O)OCC)C(C)=N[C@]1(C)Sc1c2cccc1[N+](=O)[O-]`, the Ki was found to be 6000 nM.
